Test results from patent US20100249698A1, “CONTROLLED EXOTHERM OF CYANOACRYLATE FORMULATIONS” (priority 2009, published 2010).

Experiments:
[1] = potentiometric titration at 25° C. in 0.15 M sodium chloride solution; cited from earlier work
[2] = Setting time and exotherm (setting temperature) of cyanoacrylate film polymerized via initiator-impregnated porous applicator tip; format: physicochemical; conditions: Quadrol as initiator in porous tip with 2-OCA formulations A and B

CC(O)CN(CCN(CC(C)O)CC(C)O)CC(C)O (stereo not drawn) [Quadrol, N,N,N′,N′-tetrakis(2-hydroxypropyl)ethylenediamine]
pKa1 (tertiary amine group) [1]: 8.99±0.04
pKa2 (quaternary ammonium form) [1]: 4.30±0.04
cure time [2]: clinically acceptable timeframe
